Data on two compounds can be found in patent publication US7018801B2, “Selection of peptides with antibody-like properties” (Board of Regents, The University of Texas System, priority 2000, dated 2006).

Peptide text beside a SMILES is read from it.

The target of assay [1] is ICS (pro-IL-1β-derived epitope, 14 mer) (Homo sapiens, UniProt P01584, A117G). Kind of assay: Measured KD of the LEPB-ICS complex. In kind it is binding. From the text: Finally, the most rigorous tests for peptide-peptide interaction involve spectroscopic assays. These experiments provide quantitative data regarding the affinity of the LEP for the epitope target. For example, fluorescence polarization (Heyduk et al., 1996) can be employed. In this experiment, one of the peptides is synthesized with a covalently coupled fluorescein molecule. A low concentration of this species (usually 10^−8 M to 10^−10 M) is titrated with increasing amounts of a fusion protein containing the partner peptide. The increase in the polarization of the fluorescence as a result of binding of the low molecular weight fluorescein-peptide conjugate to the high molecular weight fusion protein is monitored.
The affinities of the isolated peptides for their epitope targets can be determined by a number of methods. These include fusion of one or both of the interacting peptides to heterologous proteins, followed by the binding of one of the fusions to an affinity resin. The affinity of the partner fusion protein for this resin is then determined. Another common technique is surface plasmon resonance, in which one of the interacting peptides or fusion proteins is immobilized on an appropriately modified gold surface, and the on and off rates of the partner peptide are measured using the commercially available BIAcore instrument or an equivalent. […]

Assay [2] deals with T1, GST fusion protein containing the target epitope (Homo sapiens, UniProt P01584, A117G).
T1 construct: made in house
Kind of assay: Far Western blot of DBD-LEP fusions probed with GST-epitope fusion protein. In kind it is binding. The note with it: extract of phage-resistant cells expressing DBD-LEP fusion; anti-GST antibody detection. As to the method:
FIG. 5—“Far Western” blot protocol to eliminate false positives. An extract is prepared from phage-resistant cells that express the DBD-LEP fusion. This is electrophoresed through a denaturing gel, then blotted onto a membrane. This is probed with a GST fusion protein containing the target epitope, followed by labeled anti-GST antibody to visualize the site(s) of binding of the GST-peptide fusion protein.
The putative epitope-binding LEPs that survive the tests described above are then tested biochemically for epitope binding. […] This is done by expressing a GST fusion protein containing the target peptide at the C-terminus. This protein is then employed as a probe in a Far-Western blot experiment (FIG. 5). Crude extracts from cells that express the Repressor DBD-LEP fusion are electrophoresed through a denaturing gel and blotted onto a suitable surface, such a nitrocellulose. The blot is then probed with the GST-epitope fusion protein, followed by anti-GST antibody and finally an HRP-conjugated secondary to visualize the binding events. Lanes in which the band corresponding to the Repressor DBD-LEP is bound by the GST-epitope fusion protein are considered true hits.

As for `CC(C)C[C@H](NC(=O)[C@H](CCC(=O)O)NC(=O)[C@H](C)NC(=O)[C@H](CCC(=O)O)NC(=O)[C@H](CCCCN)NC(=O)[C@H](CCCNC(=N)N)NC(=O)[C@H](C)NC(=O)[C@@H](N)CCCCN)C(=O)N[C@@H](C)C(=O)N[C@@H](C)C(=O)N[C@@H](C)C(=O)N[C@H](C(=O)N[C@@H](C)C(=O)N[C@@H](CCC(=O)O)C(=O)N[C@@H](CCC(N)=O)C(=O)O)[C@@H](C)O` [LEPB] (H-KARKEAELAAATAEQ-OH), the Kd in assay [1] came to 2000 nM.

Turning to “PCHLNCSLQTLSPTRTTPRKHCKHCFKTLSEKMKWN [LEPD]”, the “Far Western blot signal” value in assay [2] is listed as “weak or unobservable signals”.

What is called Kd is the free concentration of one partner at which half of the binding sites on the other are occupied at equilibrium, for simple one-to-one binding.
